Test results published in ChEMBL document CHEMBL4837255, “Overcoming the Pregnane X Receptor Liability: Rational Design to Eliminate PXR-Mediated CYP Induction” (ACS Med Chem Lett, 2021).
Blank lines part the entries; values can stand above or below the molecule they belong to.

Assays:
PXR (NR1I2) = molecular target: T1, PXR (NR1I2) (Homo sapiens, UniProt O75469); assay: Activation of full length human PXR expressed in human HepG2 cells co-expressing luciferase of CYP3A4 promoter transcription assessed as increase of luciferase activity at 50 uM preincubated for 24 hrs followed by addition of luciferase substrate and measured by hPXR Gene reporter assay relative to control; format: ADME, cell-based
T1 sequence (O75469 whole entry): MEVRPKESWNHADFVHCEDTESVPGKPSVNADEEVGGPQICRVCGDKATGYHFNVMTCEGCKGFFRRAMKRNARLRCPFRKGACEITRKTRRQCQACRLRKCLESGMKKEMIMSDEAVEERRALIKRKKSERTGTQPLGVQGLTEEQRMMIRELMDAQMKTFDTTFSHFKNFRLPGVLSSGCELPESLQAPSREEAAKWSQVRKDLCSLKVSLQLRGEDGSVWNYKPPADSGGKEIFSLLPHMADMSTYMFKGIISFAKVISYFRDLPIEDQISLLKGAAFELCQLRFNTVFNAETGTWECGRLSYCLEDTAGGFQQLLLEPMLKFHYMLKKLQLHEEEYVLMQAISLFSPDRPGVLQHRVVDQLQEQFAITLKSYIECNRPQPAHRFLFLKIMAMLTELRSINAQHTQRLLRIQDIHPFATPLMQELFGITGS

[1] = molecular target: T2, Nuclear receptor subfamily 1 group I member 2 (Homo sapiens, UniProt O75469); assay: Activation of full length human PXR expressed in human HepG2 cells co-expressing luciferase of CYP3A4 promoter transcription assessed as increase of luciferase activity preincubated for 24 hrs followed by addition of luciferase substrate and measured by hPXR Gene reporter assay; format: ADME, cell-based
T2 sequence (O75469 whole entry): T1 sequence (O75469 whole entry)

[2] = molecular target: T3, Extracellular calcium-sensing receptor (Mus musculus, UniProt Q9QY96); assay: Antagonist activity at mouse CaSR; format: functional
T3 sequence (Q9QY96 whole entry): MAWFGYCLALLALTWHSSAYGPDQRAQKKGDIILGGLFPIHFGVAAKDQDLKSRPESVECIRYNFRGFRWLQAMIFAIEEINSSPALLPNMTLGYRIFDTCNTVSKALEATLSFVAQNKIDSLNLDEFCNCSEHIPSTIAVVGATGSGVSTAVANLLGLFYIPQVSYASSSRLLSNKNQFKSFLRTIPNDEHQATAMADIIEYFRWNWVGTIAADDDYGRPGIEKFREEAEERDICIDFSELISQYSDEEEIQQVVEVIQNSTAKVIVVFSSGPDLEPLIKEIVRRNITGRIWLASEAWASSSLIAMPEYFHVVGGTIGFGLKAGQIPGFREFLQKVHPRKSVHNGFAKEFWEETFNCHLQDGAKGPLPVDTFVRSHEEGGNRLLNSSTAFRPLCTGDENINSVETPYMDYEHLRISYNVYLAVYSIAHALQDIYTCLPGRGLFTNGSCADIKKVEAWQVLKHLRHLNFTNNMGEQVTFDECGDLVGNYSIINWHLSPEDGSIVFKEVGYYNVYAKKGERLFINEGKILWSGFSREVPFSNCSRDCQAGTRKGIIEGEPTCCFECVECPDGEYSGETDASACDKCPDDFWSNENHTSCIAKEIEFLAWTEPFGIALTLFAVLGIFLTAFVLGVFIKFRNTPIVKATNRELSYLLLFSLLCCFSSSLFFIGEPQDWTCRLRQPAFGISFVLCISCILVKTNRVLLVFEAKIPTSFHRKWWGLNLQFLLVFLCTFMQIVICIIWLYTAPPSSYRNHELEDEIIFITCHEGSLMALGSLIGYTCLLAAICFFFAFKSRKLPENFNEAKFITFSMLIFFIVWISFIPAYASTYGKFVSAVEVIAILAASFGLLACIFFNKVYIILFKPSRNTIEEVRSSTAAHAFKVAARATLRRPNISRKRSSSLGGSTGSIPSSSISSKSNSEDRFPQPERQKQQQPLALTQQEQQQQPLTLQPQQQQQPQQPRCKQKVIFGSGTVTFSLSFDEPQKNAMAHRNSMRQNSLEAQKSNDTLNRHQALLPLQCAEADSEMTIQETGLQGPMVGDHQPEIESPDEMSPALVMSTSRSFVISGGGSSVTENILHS

[3] = AUC (0 to t) in mouse at 300 mg/kg/day, po measured after 1 day; format: ADME, organism-based; design: time 1 day, dose 300 mg/kg/day; details: in vivo
[4] = AUC (0 to t) in mouse at 1000 mg/kg/day, po measured after 1 day; format: ADME, organism-based; design: time 1 day, dose 1000 mg/kg/day; details: in vivo
[5] = AUC (0 to t) in mouse at 2000 mg/kg/day, po measured after 1 day; format: ADME, organism-based; design: time 1 day, dose 2000 mg/kg/day; details: in vivo
[6] = AUC (0 to t) in mouse at 300 mg/kg/day, po measured after 10 days; format: ADME, organism-based; design: time 10 day, dose 300 mg/kg/day; details: in vivo
[7] = AUC (0 to t) in mouse at 1000 mg/kg/day, po measured after 10 days; format: ADME, organism-based; design: time 10 day, dose 1000 mg/kg/day; details: in vivo
[8] = AUC (0 to t) in mouse at 2000 mg/kg/day, po measured after 10 days; format: ADME, organism-based; design: time 10 day, dose 2000 mg/kg/day; details: in vivo
[9] = Cmax in mouse at 300 mg/kg/day, po measured after 1 day; format: ADME, organism-based; design: route oral, dose 300 mg/kg/day, time 1 day; details: in vivo
[10] = Cmax in mouse at 1000 mg/kg/day, po measured after 1 day; format: ADME, organism-based; design: route oral, dose 1000 mg/kg/day, time 1 day; details: in vivo
[11] = Cmax in mouse at 2000 mg/kg/day, po measured after 1 day; format: ADME, organism-based; design: route oral, dose 2000 mg/kg/day, time 1 day; details: in vivo
[12] = Cmax in mouse at 300 mg/kg/day, po measured after 10 days; format: ADME, organism-based; design: route oral, time 10 day, dose 300 mg/kg/day; details: in vivo
[13] = Cmax in mouse at 1000 mg/kg/day, po measured after 10 days; format: ADME, organism-based; design: route oral, dose 1000 mg/kg/day, time 10 day; details: in vivo
[14] = Cmax in mouse at 2000 mg/kg/day, po measured after 10 days; format: ADME, organism-based; design: route oral, time 10 day, dose 2000 mg/kg/day; details: in vivo
[15] = AUC (0 to t) in rat at 300 mg/kg/day measured after 1 day; format: ADME, organism-based; design: dose 300 mg/kg/day, time 1 day; details: in vivo
[16] = AUC (0 to t) in rat at 300 mg/kg/day measured after 10 days; format: ADME, organism-based; design: time 10 day, dose 300 mg/kg/day; details: in vivo
[17] = Cmax in rat at 300 mg/kg/day measured after 1 day; format: ADME, organism-based; design: dose 300 mg/kg/day, time 1 day; details: in vivo
[18] = Cmax in rat at 300 mg/kg/day measured after 10 days; format: ADME, organism-based; design: time 10 day, dose 300 mg/kg/day; details: in vivo
CYP3A4 = CYP3A4 (Homo sapiens, UniProt P08684); assay: Induction of CYP3A4 in human hepatocytes; format: ADME, cell-based, Liver
[19] = AUC (0 to t) in rat at 100 mg/kg/day measured after 1 day; format: ADME, organism-based; design: time 1 day, dose 100 mg/kg/day; details: in vivo
[20] = AUC (0 to t) in rat at 100 mg/kg/day measured after 10 days; format: ADME, organism-based; design: time 10 day, dose 100 mg/kg/day; details: in vivo
[21] = Cmax in rat at 100 mg/kg/day measured after 1 day; format: ADME, organism-based; design: dose 100 mg/kg/day, time 1 day; details: in vivo
[22] = Cmax in rat at 100 mg/kg/day measured after 10 days; format: ADME, organism-based; design: time 10 day, dose 100 mg/kg/day; details: in vivo
[23] = molecular target: T4, Extracellular calcium-sensing receptor (Homo sapiens, UniProt P41180); assay: Antagonist activity at human CaSR in human HEK293 cells measured after 5 mins by FLIPR assay; format: functional, cell-based
T4 sequence (P41180 whole entry): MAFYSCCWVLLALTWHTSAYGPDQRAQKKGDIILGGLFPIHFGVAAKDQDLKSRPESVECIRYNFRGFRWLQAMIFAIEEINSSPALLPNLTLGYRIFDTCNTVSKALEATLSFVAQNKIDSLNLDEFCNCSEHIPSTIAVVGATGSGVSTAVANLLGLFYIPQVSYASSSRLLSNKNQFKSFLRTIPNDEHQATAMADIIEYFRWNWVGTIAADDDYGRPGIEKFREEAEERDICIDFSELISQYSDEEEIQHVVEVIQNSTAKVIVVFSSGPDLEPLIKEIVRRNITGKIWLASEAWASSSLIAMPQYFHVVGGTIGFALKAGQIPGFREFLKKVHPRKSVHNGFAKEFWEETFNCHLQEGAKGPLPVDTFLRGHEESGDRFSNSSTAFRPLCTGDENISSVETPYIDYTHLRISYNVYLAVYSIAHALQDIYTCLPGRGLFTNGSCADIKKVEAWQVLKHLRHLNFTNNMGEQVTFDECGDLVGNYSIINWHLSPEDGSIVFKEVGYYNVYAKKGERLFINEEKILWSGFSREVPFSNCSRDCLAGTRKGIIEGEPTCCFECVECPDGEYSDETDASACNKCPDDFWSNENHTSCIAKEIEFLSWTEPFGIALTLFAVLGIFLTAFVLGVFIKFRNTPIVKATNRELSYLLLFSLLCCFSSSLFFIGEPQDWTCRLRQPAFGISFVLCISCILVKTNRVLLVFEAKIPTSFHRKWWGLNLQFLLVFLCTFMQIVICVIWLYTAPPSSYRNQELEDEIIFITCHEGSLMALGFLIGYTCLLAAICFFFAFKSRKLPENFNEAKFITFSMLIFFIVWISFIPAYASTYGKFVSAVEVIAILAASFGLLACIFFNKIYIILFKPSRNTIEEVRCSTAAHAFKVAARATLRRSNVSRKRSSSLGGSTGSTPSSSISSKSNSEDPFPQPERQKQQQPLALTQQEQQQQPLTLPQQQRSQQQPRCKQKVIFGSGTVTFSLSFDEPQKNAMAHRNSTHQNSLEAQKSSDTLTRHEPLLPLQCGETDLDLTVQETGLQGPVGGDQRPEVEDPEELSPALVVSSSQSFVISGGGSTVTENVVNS

CYP3A4, sequence (P08684 whole entry): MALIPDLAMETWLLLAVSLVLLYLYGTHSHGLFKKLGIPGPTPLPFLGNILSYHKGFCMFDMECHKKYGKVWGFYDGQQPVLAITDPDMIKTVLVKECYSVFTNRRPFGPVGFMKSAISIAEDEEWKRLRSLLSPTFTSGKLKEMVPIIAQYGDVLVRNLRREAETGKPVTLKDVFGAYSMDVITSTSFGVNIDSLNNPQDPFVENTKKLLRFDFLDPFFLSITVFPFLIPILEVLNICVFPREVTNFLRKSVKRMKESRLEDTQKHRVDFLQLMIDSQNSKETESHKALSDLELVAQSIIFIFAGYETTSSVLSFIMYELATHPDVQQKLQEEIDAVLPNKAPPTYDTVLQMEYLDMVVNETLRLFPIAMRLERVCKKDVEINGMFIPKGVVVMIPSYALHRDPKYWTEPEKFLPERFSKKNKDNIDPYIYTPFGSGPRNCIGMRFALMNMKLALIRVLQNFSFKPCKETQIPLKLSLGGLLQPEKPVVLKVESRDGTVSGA

SMILES: Cc1ncc(-c2c(C)nc(-c3cccc(F)c3O)n(CCc3ccccc3)c2=O)s1
Emax at 24 h, 50 µM (PXR (NR1I2)): 40%
EC50 [1]: > 10 µM

SMILES: Cc1nc(-c2cccc(F)c2O)n(CCc2ccccc2)c(=O)c1-c1ccc(-c2ccccc2)s1
Emax at 24 h, 50 µM (PXR (NR1I2)): 60%
EC50 [1]: 8 µM

SMILES: Cc1nc(-c2cccc(F)c2O)n(CCc2ccccc2)c(=O)c1-c1cc(-c2ccccn2)c(C)s1
Emax at 24 h, 50 µM (PXR (NR1I2)): 9%
EC50 [1]: > 50 µM
AUC(0-t) at 24 h [19]: 29500 ng·h/mL
AUC(0-t) at 240 h [20]: 41100 ng·h/mL
Cmax [21]: 8900 ng/mL
Cmax [22]: 12000 ng/mL

SMILES: Cc1nc(-c2cccc(F)c2O)n(CCc2ccccc2)c(=O)c1-c1ccc(CO)s1
Emax at 24 h, 50 µM (PXR (NR1I2)): 31%
EC50 [1]: 13 µM
IC50 [23]: > 10 µM

The next molecules have a lower EC50 [1] than those just listed; values first:

Emax at 24 h, 50 µM (PXR (NR1I2)): 36%
EC50 [1]: 5 µM
SMILES: Cc1nc(-c2cccc(F)c2O)n(CCc2ccccc2)c(=O)c1-c1ccc(-c2ccccn2)s1

Emax at 24 h, 50 µM (PXR (NR1I2)): 110%
EC50 [1]: 3.2 µM
SMILES: Cc1ccc(-c2nc(CCc3ccccc3)c(-c3cccc(F)c3O)nc2C)s1

IC50 [2]: 0.051 µM
Emax at 24 h, 50 µM (PXR (NR1I2)): 122%
EC50 [1]: 2.5 µM
AUC(0-t) at 24 h [3]: 2880 ng·h/mL
AUC(0-t) at 24 h [4]: 10800 ng·h/mL
AUC(0-t) at 24 h [5]: 15100 ng·h/mL
AUC(0-t) at 240 h [6]: 1260 ng·h/mL
AUC(0-t) at 240 h [7]: 2850 ng·h/mL
AUC(0-t) at 240 h [8]: 1580 ng·h/mL
Cmax [9]: 980 ng/mL
Cmax [10]: 2960 ng/mL
Cmax [11]: 3600 ng/mL
Cmax [12]: 820 ng/mL
Cmax [13]: 680 ng/mL
Cmax [14]: 480 ng/mL
AUC(0-t) at 24 h [15]: 2500 ng·h/mL
AUC(0-t) at 240 h [16]: 1800 ng·h/mL
Cmax [17]: 330 ng/mL
Cmax [18]: 360 ng/mL
Emax (CYP3A4): 10%
SMILES: Cc1ccc(-c2c(C)nc(-c3cccc(F)c3O)n(CCc3ccccc3)c2=O)s1

Emax at 24 h, 50 µM (PXR (NR1I2)): 250%
EC50 [1]: 1 µM
SMILES: Cc1nc(-c2cccc(F)c2O)n(CCc2ccccc2)c(=O)c1Cc1ccccc1
